Results: PubChem BioAssay AID2060884 (Molecular Pharmacology Branch, DTP, NCI, 2025)

Test system: NCI-H929 complex spheroids, viability % test/control
Experiment: Anticancer human tumor NCI-H929 cell line growth inhibition [RAS];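 further: compound exposure lasted seven days before viability was read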;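 on viability, T/C: 100% = DMSO vehicle control viability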
Details: for IC50: curve of first compound; for viability, T/C: stronger effect = lower value
Summary of the method: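 Tumour cells grown as complex spheroids with HUVEC endothelial cells and mesenchymal stem cells, treated with RAS pathway inhibitor combinations. Each agent spans half-log steps from near clinical Cmax, or 10 microM where Cmax is unknown.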

Compound `CCN1CCN(Cc2ccc(Nc3ncc(F)c(-c4cc(F)c5nc(C)n(C(C)C)c5c4)n3)nc2)CC1` + CCn1c(-c2cccnc2C(C)OC)c2c3cc(ccc31)N1CCOC(CC(NC(=O)C(C(C)C)N(C)C(=O)C3(F)CCN(C(=O)C#CC(C)(C)N(C)C)CC3)C(=O)N3CCCC(N3)C(=O)OCC(C)(C)C2)C1 has an IC50 (second compound 0.000949 µM) of 776 nM, an IC50 (second compound 0.003 µM) of 746 nM and an IC50 (second compound 0.00949 µM) of 814 nM. The IC50 (second compound 0.03 µM) was 734 nM, the IC50 (second compound 0.0949 µM) was 662 nM and the IC50 (second compound 0.3 µM) was 619 nM. The viability, T/C (second compound 0.000949 µM, first compound 0.00316 µM) was 105%, the viability, T/C (second compound 0.000949 µM, first compound 0.01 µM) was 97.9% and the viability, T/C (second compound 0.000949 µM, first compound 0.0316 µM) was 105%. For the same compound, the viability, T/C (second compound 0.000949 µM, first compound 0.1 µM) was 101%, the viability, T/C (second compound 0.000949 µM, first compound 0.316 µM) was 104% and the viability, T/C (second compound 0.000949 µM, first compound 1 µM) was 35.1%. For the same compound, the viability, T/C (second compound 0.003 µM, first compound 0.00316 µM) was 103%, the viability, T/C (second compound 0.003 µM, first compound 0.01 µM) was 101% and the viability, T/C (second compound 0.003 µM, first compound 0.0316 µM) was 103%. The viability, T/C (second compound 0.003 µM, first compound 0.1 µM) was 105%, the viability, T/C (second compound 0.003 µM, first compound 0.316 µM) was 106% and the viability, T/C (second compound 0.003 µM, first compound 1 µM) was 31.7%. It also gave a viability, T/C (second compound 0.00949 µM, first compound 0.00316 µM) of 96.8%, a viability, T/C (second compound 0.00949 µM, first compound 0.01 µM) of 104% and a viability, T/C (second compound 0.00949 µM, first compound 0.0316 µM) of 99.9%. The viability, T/C (second compound 0.00949 µM, first compound 0.1 µM) was 104%, the viability, T/C (second compound 0.00949 µM, first compound 0.316 µM) was 107% and the viability, T/C (second compound 0.00949 µM, first compound 1 µM) was 38.6%. The viability, T/C (second compound 0.03 µM, first compound 0.00316 µM) was 97.4%, the viability, T/C (second compound 0.03 µM, first compound 0.01 µM) was 101% and the viability, T/C (second compound 0.03 µM, first compound 0.0316 µM) was 106%. It also gave a viability, T/C (second compound 0.03 µM, first compound 0.1 µM) of 101%, a viability, T/C (second compound 0.03 µM, first compound 0.316 µM) of 108% and a viability, T/C (second compound 0.03 µM, first compound 1 µM) of 30.8%. The viability, T/C (second compound 0.0949 µM, first compound 0.00316 µM) was 99.4%, the viability, T/C (second compound 0.0949 µM, first compound 0.01 µM) was 99.5% and the viability, T/C (second compound 0.0949 µM, first compound 0.0316 µM) was 102%. For the same compound, the viability, T/C (second compound 0.0949 µM, first compound 0.1 µM) was 103%, the viability, T/C (second compound 0.0949 µM, first compound 0.316 µM) was 104% and the viability, T/C (second compound 0.0949 µM, first compound 1 µM) was 21.2%. It also gave a viability, T/C (second compound 0.3 µM, first compound 0.00316 µM) of 98.7%, a viability, T/C (second compound 0.3 µM, first compound 0.01 µM) of 104% and a viability, T/C (second compound 0.3 µM, first compound 0.0316 µM) of 105%. The viability, T/C (second compound 0.3 µM, first compound 0.1 µM) was 106%, the viability, T/C (second compound 0.3 µM, first compound 0.316 µM) was 109% and the viability, T/C (second compound 0.3 µM, first compound 1 µM) was 11.2%.
